Measured values reported in patent US20260048060A1, “POLYCYCLIC THYROID HORMONE b RECEPTOR AGONIST AND USE THEREOF” (CASCADE PHARMACEUTICALS, INC., priority 2022, published 2026).

Tests used:
THRβ [1] = target: T1, THRβ (Homo sapiens, UniProt P10828); test: Time-resolved FRET (THR-FRET) agonist activity assay, GST-tagged THRβ LBD with SRC2 polypeptide; type: biochemical; conditions: ratio of THR-FRET EC50 values THRα/THRβ
T1 construct: made in house; host or cells: E. coli BL21 (DE3)
T1 sequence (P10828 217-461 limits assumed): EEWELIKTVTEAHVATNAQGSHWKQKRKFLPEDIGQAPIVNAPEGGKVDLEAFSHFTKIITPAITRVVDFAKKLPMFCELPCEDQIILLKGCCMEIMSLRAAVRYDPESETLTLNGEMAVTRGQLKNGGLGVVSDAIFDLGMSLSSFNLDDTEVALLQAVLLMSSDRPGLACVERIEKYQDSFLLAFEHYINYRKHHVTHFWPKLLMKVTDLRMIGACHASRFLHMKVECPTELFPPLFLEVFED
Text: Experimental Example 2: Detection of Agonist Activities of Compounds Against THRα/β Based on Time-Resolved Fluorescence Resonance Energy Transfer (THR-FRET)
By visiting NCBI, the THRα/β LBD domain sequences were found. The pET21-His-GST-dLBT-THRα LBD and pET21-His-GST-dLBT-THRβ LBD overexpression vectors were constructed by the fusion method, and sequenced to confirm the accuracy of the sequences.
The correctly sequenced THRα LBD and THRβ LBD overexpression vectors were transfected into E. coli cells BL21 (DE3), and spread on an agar plate with ampicillin. Monoclones were picked out and amplified in an LB medium, and transferred into 1 L LB at a ratio of 1:100 for large-scale culture. When the OD value was at 0.8 to 1.2, 0.5 mM isopropyl-beta-D-thiogalactopyranoside (IPTG) was added, and induced overnight at 18° C. The bacteria were harvested, disrupted, and purified via the GST column and the molecular sieve to obtain two proteins His-GST-dLBT-THRα LBD and His-GST-dLBT-THRβ LBD.
The proteins were taken out from a refrigerator at −80° C. The proteins with the GST-tagged THRα/β LBD domain and the Eu-labelled GST antibodies were thawed slowly on ice, and an assay buffer containing a final concentration of 5 mM dithiothreitol (DTT) was formulated.
The starting concentration of the compound was 100 μM (in DMSO). The compound (100 μM in DMSO) was subjected to 3-fold isogradient dilution with DMSO to obtain a total of 11 isogradient concentrations. Subsequently, the above compounds at the isogradient concentration were further subjected to 50-fold dilution with an assay buffer containing 5 mM DTT.
The final concentrations of all components were calculated based on a system with a final volume of 20 μL per well. To 18 μL of assay buffer containing 5 mM DTT, the GST-tagged THRα/β proteins, the SRC2 ([…]) polypeptide, XL665 (Cisobio, #610SAXLB), and the Eu-labeled GST antibody were added, and the final concentrations were 2 nM, 200 nM, 0.05 nM, and 7.6 nM respectively to formulate 18 μL of reaction mixture of the proteins, polypeptide, and antibody per well.
18 μL of reaction mixture and 2 μL of diluted compound were added into an optiplate-384-well plate, and reacted at room temperature for 24 h.
The plate was read using an MD i3X multi-mode microplate reader with the excitation and emission wavelengths of 340 nm and 665 nm, respectively. The intensity of light at a wavelength of 616 nm generated by europium excited by 340 nm wavelength light from the MD i3X multi-mode microplate reader was used as the background. According to the different activation degrees of different compounds against THRα and THRβ, the intensity of the emission light at a wavelength of 665 nm generated by exciting XL665 with the exciting light at a wavelength of 616 nm was varied. The intensity ratio between these two light wavelengths (665 nm, 616 nm) was used as the activation activity of the compound against THRα or THRβ, and the ratio in the solvent DMSO group was used for normalization. The dose-response curve was fitted with four parameters using the GraphPad Prism 6.0 software, and the EC50 value was calculated.

THRβ [2] = target: T2, THRβ (Homo sapiens, UniProt P10828); test: Reporter gene (GAL4-THRβ-LBD / Dual-Glo luciferase) agonist activity assay in HEK293T cells; type: cell-based; conditions: ratio of reporter gene EC50 values THRα/THRβ
T2 construct: expressed in transfected cells; host or cells: HEK293T
T2 sequence (P10828 217-461): T1 sequence (P10828 217-461 limits assumed)
Text: Experimental Example 1: Detection of THRα and THRβ Agonist Activities of Compounds Based on Reporter Gene Activity Assay Method
1.1 Construction and Preparation of Plasmids pGAL4-THR-LBD and pG5-Luc
The pGAL4-THRα-LBD and pGAL4-THRβ-LBD plasmids used in the reporter gene assay system were constructed by a conventional molecular cloning method comprising the following main steps: the cDNA sequences of THRα (NM_003250) and THRβ (NM_000461) corresponding to the amino acid sequences of THRα (163-407AA) and THRβ (217-461AA) were inserted into the BamHI and NotI enzyme digestion sites of the pGAL4 vector by the PCR technique respectively to obtain the pGAL4-THRα-LBD and pGAL4-THRβ-LBD plasmids; the pG5-Luc (#E249A) and pRL-TK (#E2241) plasmids were purchased from Promega; the plasmids were transfected into the E. coli DH5α by the CaCl2 method, and after further culture and amplification, the plasmids were purified by Plasmid Extraction Kits (TIANGEN, #D107) to obtain the corresponding plasmid DNAs.
1.2 Co-Transfection of Plasmids into HEK293T Cells and Treatment with Compounds
The HEK293T cells were inoculated into a 96-well plate at a density of 1×10^4/well the day before plasmid transfection. Cell transfection was conducted according to the instructions of the transfection reagent FuGENE® HD (Promega, #E2311). The main steps were as follows: taking one well as an example here, the plasmids pGAL4-THRα-LBD or pGAL4-THRβ-LBD, pG5-Luc, and pRL-TK were added in the proportions of 20 ng, 50 ng, and 5 ng to 10 μL of Opti-MEM™ I medium (Gibco, #11058021) and mixed well; subsequently, 0.25 uL of FuGENE® HD was added, mixed well, and then left at room temperature for 5 min; afterwards, 10 μL of the mixture was added to the cell wells containing 100 μL of culture medium. After cell co-transfection for 6 h, the compound was diluted in a 3-fold gradient with dimethyl sulfoxide at the highest concentration of 1 uM. The compound was added to the cell culture medium at a total of 10 concentrations for treatment for 24 h. There were a total of two duplicate wells for each concentration. Triiodothyronine (T3) was used as the positive control.
1.3 Dual-Glo Luciferase Assay
After the cells were treated with the compound for 24 h, the cells were assayed according to the instructions of Dual-Glo® Luciferase Assay System (Promega, #E2940). The main steps were as follows: 50 μL of culture medium was aspirated from each well and discarded, and then 50 μL of Dual-Glo® Luciferase reagent was added and oscillated at room temperature for 10 min; 80 μL of lysis reaction solution was measured into a white opaque optiPlate-96-well plate, and the luminescence signal value (Firefly-Luc) of the Firefly luciferase was detected using an MD i3x multi-mode microplate reader; 40 μL of Dual-Glo® Stop & Glo® reagent was then added, and oscillated at room temperature for 10 min; the luminescence signal value (Renilla-Luc) of the Renilla luciferase was then detected using an MD i3x multi-mode microplate reader. The Firefly-Luc/Renilla-Luc ratio was used as the activation activity of the compound against THR, and the ratio in the solvent DMSO group was used for normalization; the dose-response curve was fitted with four parameters using the GraphPad Prism6.0 software, and the EC50 value was calculated.

Selectivity (THRα/THRβ) (THRβ [1]) | Selectivity (THRα/THRβ) (THRβ [2]) | Structure (SMILES)
††† (†††: 20 ≥ THRα/β > 10;) | – | NC(=O)c1ccccc1SCc1c(Cl)cc(-n2ncc(=O)[nH]c2=O)cc1Cl [Compound 19]
†† (††: 10 ≥ THRα/β;) | – | CNC(=O)c1ccccc1Oc1c(Cl)cc(-n2ncc(=O)[nH]c2=O)cc1Cl [Compound 114, reference compound]
†† (††: 10 ≥ THRα/β;) | † (†: 5 ≥ THRα/β;) | [2H]C(Oc1ccccc1C(=O)NC([2H])([2H])[2H])c1c(Br)cc(-n2nc(C([2H])(F)F)c(=O)[nH]c2=O)cc1Br (stereo not drawn) [Compound 113]
†† (††: 10 ≥ THRα/β;) | – | O=C(NO)c1ccccc1OCc1c(Cl)cc(-n2ncc(=O)[nH]c2=O)cc1Cl [Compound 42]
††† (†††: 20 ≥ THRα/β > 10;) | – | Cc1ccc(C(N)=O)c(OCc2c(Cl)cc(-n3ncc(=O)[nH]c3=O)cc2Cl)c1 [Compound 33]
††† (†††: 20 ≥ THRα/β > 10;) | – | CC(C)NC(=O)c1ccccc1SCc1c(Cl)cc(-n2ncc(=O)[nH]c2=O)cc1Cl [Compound 22]
†† (††: 10 ≥ THRα/β;) | † (†: 5 ≥ THRα/β;) | NC(=O)c1ccccc1OCc1c(Cl)cc(-n2nc(C(F)F)c(=O)[nH]c2=O)cc1Cl [Compound 54]
†† (††: 10 ≥ THRα/β;) | † (†: 5 ≥ THRα/β;) | [2H]C(F)(F)c1nn(-c2cc(Br)c(COc3ccccc3C(=O)NC)c(Br)c2)c(=O)[nH]c1=O [Compound 107]
††† (†††: 20 ≥ THRα/β > 10;) | † (†: 5 ≥ THRα/β;) | CNC(=O)c1ccccc1SCc1c(Br)cc(-n2ncc(=O)[nH]c2=O)cc1Br [Compound 25]
††† (†††: 20 ≥ THRα/β > 10;) | – | CNC(=O)c1ccccc1SCc1c(Cl)cc(-n2ncc(=O)[nH]c2=O)cc1Cl [Compound 20]
†† (††: 10 ≥ THRα/β;) | † (†: 5 ≥ THRα/β;) | CNC(=O)c1ccccc1OCc1c(Cl)cc(-n2ncc(=O)[nH]c2=O)cc1Cl [Compound 17]
†† (††: 10 ≥ THRα/β;) | † (†: 5 ≥ THRα/β;) | CNC(=O)c1ccccc1OCc1c(Cl)cc(-n2nc(C(F)F)c(=O)[nH]c2=O)cc1Cl [Compound 53]
††† (†††: 20 ≥ THRα/β > 10;) | – | O=C(O)c1ccccc1SCc1c(Cl)cc(-n2ncc(=O)[nH]c2=O)cc1Cl [Compound 18]
†† (††: 10 ≥ THRα/β;) | – | CNC(=O)c1ccccc1SCc1c(Br)cc(-n2nc(C#N)c(=O)[nH]c2=O)cc1Br [Compound 13]
†† (††: 10 ≥ THRα/β;) | †† (††: 10 ≥ THRα/β > 5;) | NC(=O)c1ccccc1OCc1c(Br)cc(-n2ncc(=O)[nH]c2=O)cc1Br [Compound 38]
††† (†††: 20 ≥ THRα/β > 10;) | – | CNC(=O)c1ccccc1SCc1c(Cl)cc(-n2nc(C#N)c(=O)[nH]c2=O)cc1Cl [Compound 7]
†† (††: 10 ≥ THRα/β;) | † (†: 5 ≥ THRα/β;) | NC(=O)c1sccc1OCc1c(Cl)cc(-n2ncc(=O)[nH]c2=O)cc1Cl [Compound 45]
†† (††: 10 ≥ THRα/β;) | † (†: 5 ≥ THRα/β;) | [2H]C([2H])([2H])NC(=O)c1ccccc1OCc1c(Br)cc(-n2nc(C([2H])(F)F)c(=O)[nH]c2=O)cc1Br [Compound 112]
†† (††: 10 ≥ THRα/β;) | – | CNC(=O)c1ccccc1SCc1c(Cl)cc(-n2nc(C(F)F)c(=O)[nH]c2=O)cc1Cl [Compound 55]
†† (††: 10 ≥ THRα/β;) | – | CNC(=O)c1ccccc1OCc1c(Cl)cc(-n2nc(C#N)c(=O)[nH]c2=O)cc1Cl [Compound 2]
†† (††: 10 ≥ THRα/β;) | – | N#Cc1nn(-c2cc(Cl)c(COc3ccccc3C(N)=O)c(Cl)c2)c(=O)[nH]c1=O [Compound 1]
†† (††: 10 ≥ THRα/β;) | † (†: 5 ≥ THRα/β;) | [2H]C(Oc1ccccc1C(=O)NC)c1c(Br)cc(-n2nc(C([2H])(F)F)c(=O)[nH]c2=O)cc1Br (stereo not drawn) [Compound 111]
†† (††: 10 ≥ THRα/β;) | – | CNC(=O)c1ccccc1OCc1c(Br)cc(-n2nc(C#N)c(=O)[nH]c2=O)cc1Br [Compound 12]
††† (†††: 20 ≥ THRα/β > 10;) | – | O=C(O)c1ccccc1NCc1c(Cl)cc(-n2ncc(=O)[nH]c2=O)cc1Cl [Compound 26]
†† (††: 10 ≥ THRα/β;) | – | CNC(=O)c1ccccc1NCc1c(Cl)cc(-n2nc(C#N)c(=O)[nH]c2=O)cc1Cl [Compound 9]
††† (†††: 20 ≥ THRα/β > 10;) | – | N#Cc1nn(-c2cc(Cl)c(CNc3ccccc3C(=O)O)c(Cl)c2)c(=O)[nH]c1=O [Compound 10]
†† (††: 10 ≥ THRα/β;) | – | CCNC(=O)c1ccccc1SCc1c(Cl)cc(-n2ncc(=O)[nH]c2=O)cc1Cl [Compound 24]
††† (†††: 20 ≥ THRα/β > 10;) | – | N#Cc1nn(-c2cc(Cl)c(CSc3ccccc3C(=O)O)c(Cl)c2)c(=O)[nH]c1=O [Compound 6]
†† (††: 10 ≥ THRα/β;) | – | N#Cc1nn(-c2cc(Br)c(COc3ccccc3C(N)=O)c(Br)c2)c(=O)[nH]c1=O [Compound 11]
